Laboratory results published in patent US9693556B2, “Herbicidal pyridazinone derivatives” (SYNGENTA LIMITED, priority 2011, dated 2017).

What was measured:
Type in all cases: in vivo
Setaria faberi (SETFA) [1] = test: Pre-emergence herbicidal glasshouse test on Setaria faberi; conditions: pre-emergence; 1000 g/h; evaluated after 13 days
Method in brief: (§1)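 Read-out: percentage herbicidal damage 13 days after spraying, given on a five-point scale (5=80-100%, 4=60-79%, 3=40-59%, 2=20-39%, 1=0-19%). Pots of standard soil; application at 1000 g/h, one day post-sowing for pre-emergence, eight days for post-emergence.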

[2] = tested on: Echinochloa crus-galli (ECHCG); test: Pre-emergence herbicidal glasshouse test on Echinochloa crus-galli; conditions: pre-emergence; 1000 g/h; evaluated after 13 days
Method in brief: as §1

[3] = tested on: Echinochloa crus-galli (ECHCG); test: Post-emergence herbicidal glasshouse test on Echinochloa crus-galli; conditions: post-emergence; 1000 g/h; evaluated after 13 days
Method in brief: as §1

[4] = tested on: Alopecurus myosuroides (ALOMY); test: Pre-emergence herbicidal glasshouse test on Alopecurus myosuroides; conditions: pre-emergence; 1000 g/h; evaluated after 13 days
Method in brief: as §1

[5] = tested on: Ipomoea hederacea (IPOHE); test: Post-emergence herbicidal glasshouse test on Ipomoea hederacea; conditions: post-emergence; 1000 g/h; evaluated after 13 days
Method in brief: as §1

[6] = tested on: Amaranthus retoflexus (AMARE); test: Pre-emergence herbicidal glasshouse test on Amaranthus retoflexus; conditions: pre-emergence; 1000 g/h; evaluated after 13 days
Method in brief: as §1

[7] = tested on: Ipomoea hederacea (IPOHE); test: Pre-emergence herbicidal glasshouse test on Ipomoea hederacea; conditions: pre-emergence; 1000 g/h; evaluated after 13 days
Method in brief: as §1

Solanum nigrum (SOLNI) [8] = test: Post-emergence herbicidal glasshouse test on Solanum nigrum; conditions: post-emergence; 1000 g/h; evaluated after 13 days
Method in brief: as §1

Setaria faberi (SETFA) [9] = test: Post-emergence herbicidal glasshouse test on Setaria faberi; conditions: post-emergence; 1000 g/h; evaluated after 13 days
Method in brief: as §1

[10] = tested on: Amaranthus retoflexus (AMARE); test: Post-emergence herbicidal glasshouse test on Amaranthus retoflexus; conditions: post-emergence; 1000 g/h; evaluated after 13 days
Method in brief: as §1

Solanum nigrum (SOLNI) [11] = test: Pre-emergence herbicidal glasshouse test on Solanum nigrum; conditions: pre-emergence; 1000 g/h; evaluated after 13 days
Method in brief: as §1

[12] = tested on: Alopecurus myosuroides (ALOMY); test: Post-emergence herbicidal glasshouse test on Alopecurus myosuroides; conditions: post-emergence; 1000 g/h; evaluated after 13 days
Method in brief: as §1

| SMILES | PRE Application SETFA herbicidal damage (five point scale) (Setaria faberi (SETFA) [1]) | PRE Application ECHCG herbicidal damage (five point scale) [2] | POST Application ECHCG herbicidal damage (five point scale) [3] | PRE Application ALOMY herbicidal damage (five point scale) [4] | POST Application IPOHE herbicidal damage (five point scale) [5] | PRE Application AMARE herbicidal damage (five point scale) [6] | PRE Application IPOHE herbicidal damage (five point scale) [7] | POST Application SOLNI herbicidal damage (five point scale) (Solanum nigrum (SOLNI) [8]) | POST Application SETFA herbicidal damage (five point scale) (Setaria faberi (SETFA) [9]) | POST Application AMARE herbicidal damage (five point scale) [10] | PRE Application SOLNI herbicidal damage (five point scale) (Solanum nigrum (SOLNI) [11]) | POST Application ALOMY herbicidal damage (five point scale) [12] |
| --- | --- | --- | --- | --- | --- | --- | --- | --- | --- | --- | --- | --- |
| Cn1ncc(-c2c(F)cnc(F)c2F)c(O)c1=O [Compound 1.149] | 1 (1=0-19% damage) | 1 (1=0-19% damage) | 1 (1=0-19% damage) | 1 (1=0-19% damage) | 1 (1=0-19% damage) | 1 (1=0-19% damage) | 1 (1=0-19% damage) | 4 (4=60-79% damage) | 1 (1=0-19% damage) | 4 (4=60-79% damage) | 1 (1=0-19% damage) | 2 (2=20-39% damage) |
| Cn1ncc(-c2cccn(-c3cccc(C#N)c3)c2=O)c(O)c1=O [Compound 1.138] | 1 (1=0-19% damage) | 1 (1=0-19% damage) | 4 (4=60-79% damage) | 1 (1=0-19% damage) | 1 (1=0-19% damage) | 1 (1=0-19% damage) | 1 (1=0-19% damage) | 5 (5=80-100% damage) | 5 (5=80-100% damage) | 5 (5=80-100% damage) | 1 (1=0-19% damage) | 1 (1=0-19% damage) |
| Cn1ncc(-n2cc(N3CCOCC3)c(C(F)(F)F)cc2=O)c(O)c1=O [Compound 1.025] | 1 (1=0-19% damage) | 1 (1=0-19% damage) | 1 (1=0-19% damage) | 1 (1=0-19% damage) | 2 (2=20-39% damage) | 1 (1=0-19% damage) | 1 (1=0-19% damage) | 4 (4=60-79% damage) | 1 (1=0-19% damage) | 2 (2=20-39% damage) | 1 (1=0-19% damage) | 1 (1=0-19% damage) |
| Cn1ncc(-c2ccc(C#N)cc2S(C)(=O)=O)c(O)c1=O [Compound 1.141] | 5 (5=80-100% damage) | 5 (5=80-100% damage) | 5 (5=80-100% damage) | 5 (5=80-100% damage) | 5 (5=80-100% damage) | 5 (5=80-100% damage) | 5 (5=80-100% damage) | 5 (5=80-100% damage) | 5 (5=80-100% damage) | 5 (5=80-100% damage) | 5 (5=80-100% damage) | 5 (5=80-100% damage) |
| Cn1ncc(-n2ccc(C(F)(F)F)c(-c3cccc(Cl)c3)c2=O)c(O)c1=O [Compound 1.037] | 4 (4=60-79% damage) | 5 (5=80-100% damage) | 4 (4=60-79% damage) | 4 (4=60-79% damage) | 4 (4=60-79% damage) | 5 (5=80-100% damage) | 1 (1=0-19% damage) | 5 (5=80-100% damage) | 4 (4=60-79% damage) | 5 (5=80-100% damage) | 5 (5=80-100% damage) | 4 (4=60-79% damage) |
| COc1ccc(Cn2ncc(-c3ccc(S(C)(=O)=O)c(C4=NOCC4)c3C)c(O)c2=O)cc1 [Compound 1.002] | 1 (1=0-19% damage) | 1 (1=0-19% damage) | 1 (1=0-19% damage) | 1 (1=0-19% damage) | 2 (2=20-39% damage) | 1 (1=0-19% damage) | 1 (1=0-19% damage) | 5 (5=80-100% damage) | 1 (1=0-19% damage) | 3 (3=40-59% damage) | 1 (1=0-19% damage) | 1 (1=0-19% damage) |
| Cn1nc(O)c(-c2ccc(C(F)(F)F)cc2S(C)(=O)=O)c(O)c1=O [Compound 2.056] | 5 (5=80-100% damage) | 5 (5=80-100% damage) | 5 (5=80-100% damage) | 4 (4=60-79% damage) | 5 (5=80-100% damage) | 5 (5=80-100% damage) | 3 (3=40-59% damage) | 5 (5=80-100% damage) | 5 (5=80-100% damage) | 5 (5=80-100% damage) | 5 (5=80-100% damage) | 5 (5=80-100% damage) |
| Cc1c(Cl)cccc1-c1c(C(F)(F)F)ccn(-c2cnn(C)c(=O)c2O)c1=O [Compound 7.030] | 4 (4=60-79% damage) | 5 (5=80-100% damage) | 5 (5=80-100% damage) | 5 (5=80-100% damage) | 5 (5=80-100% damage) | 5 (5=80-100% damage) | 4 (4=60-79% damage) | 5 (5=80-100% damage) | 5 (5=80-100% damage) | 5 (5=80-100% damage) | 5 (5=80-100% damage) | 5 (5=80-100% damage) |
